{"source": "ChEMBL document CHEMBL4602719", "about": "“Discovery of Potent, Selective, and Orally Bioavailable Inhibitors of USP7 with In Vivo Antitumor Activity” (J Med Chem, 2020)", "key": {"[1]": {"molecular_target": "Ubiquitin carboxyl-terminal hydrolase 7 (Homo sapiens, UniProt Q93009)", "experiment": "Inhibition of recombinant full length USP7 (unknown origin) using ubiquintin-rhodamine as substrate preincubated for 30 mins followed by substrate addition measured after 1 hr by fluorescence-based Envision plate reader assay"}, "[2]": {"experiment": "Cytotoxicity against human RKO cells assessed as reduction in cellular ATP level measured after 5 days by CellTiter-Glo assay", "assay_type": "cell-based"}, "[3]": {"molecular_target": "Voltage-gated inwardly rectifying potassium channel KCNH2 (Homo sapiens, UniProt Q12809)", "sequence (Q12809 whole entry)": "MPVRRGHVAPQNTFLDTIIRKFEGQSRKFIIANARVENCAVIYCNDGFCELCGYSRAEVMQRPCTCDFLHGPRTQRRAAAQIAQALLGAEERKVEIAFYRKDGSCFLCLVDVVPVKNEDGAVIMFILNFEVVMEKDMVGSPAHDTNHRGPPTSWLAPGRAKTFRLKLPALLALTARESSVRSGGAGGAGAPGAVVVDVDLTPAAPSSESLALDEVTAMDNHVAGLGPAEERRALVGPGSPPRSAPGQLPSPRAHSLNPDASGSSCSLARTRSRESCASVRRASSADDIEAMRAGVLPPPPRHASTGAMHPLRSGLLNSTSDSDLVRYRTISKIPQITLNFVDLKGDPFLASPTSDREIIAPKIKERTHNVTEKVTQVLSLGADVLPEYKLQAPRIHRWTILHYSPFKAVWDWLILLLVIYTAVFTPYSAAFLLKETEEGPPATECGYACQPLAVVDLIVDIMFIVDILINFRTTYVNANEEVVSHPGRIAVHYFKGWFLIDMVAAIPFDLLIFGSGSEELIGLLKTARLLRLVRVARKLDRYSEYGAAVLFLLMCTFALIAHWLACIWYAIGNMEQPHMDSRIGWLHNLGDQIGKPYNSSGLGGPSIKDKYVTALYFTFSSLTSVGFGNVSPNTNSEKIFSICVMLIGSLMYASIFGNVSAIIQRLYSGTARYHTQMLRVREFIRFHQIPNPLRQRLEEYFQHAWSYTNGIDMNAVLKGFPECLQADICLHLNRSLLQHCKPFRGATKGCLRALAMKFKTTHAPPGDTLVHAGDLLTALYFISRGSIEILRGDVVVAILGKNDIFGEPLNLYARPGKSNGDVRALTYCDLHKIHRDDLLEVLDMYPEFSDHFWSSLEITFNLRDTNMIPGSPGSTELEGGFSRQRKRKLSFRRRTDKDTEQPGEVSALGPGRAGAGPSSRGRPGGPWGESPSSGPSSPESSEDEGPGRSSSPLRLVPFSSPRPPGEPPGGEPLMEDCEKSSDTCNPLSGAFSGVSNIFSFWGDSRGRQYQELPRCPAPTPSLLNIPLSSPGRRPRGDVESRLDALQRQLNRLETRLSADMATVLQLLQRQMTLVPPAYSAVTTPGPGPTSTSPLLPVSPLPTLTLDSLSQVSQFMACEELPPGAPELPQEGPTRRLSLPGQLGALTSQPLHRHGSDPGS", "experiment": "Inhibition of human ERG"}, "Cytochrome P450 3A4": {"molecular_target": "Cytochrome P450 3A4 (Homo sapiens, UniProt P08684)", "experiment": "Inhibition of CYP3A4 (unknown origin)", "assay_type": "ADME"}, "[4]": {"molecular_target": "T1, Ubiquitin carboxyl-terminal hydrolase isozyme L3 (Homo sapiens, UniProt P15374)", "T1 sequence (P15374 whole entry)": "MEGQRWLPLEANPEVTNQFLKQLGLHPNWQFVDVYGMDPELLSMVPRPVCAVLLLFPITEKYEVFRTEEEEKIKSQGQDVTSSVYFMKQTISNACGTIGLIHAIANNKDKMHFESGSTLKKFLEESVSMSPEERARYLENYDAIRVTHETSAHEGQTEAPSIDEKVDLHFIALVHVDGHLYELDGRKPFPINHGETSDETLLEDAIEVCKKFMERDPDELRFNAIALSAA", "experiment": "Inhibition of human GST-tagged UCHL3 expressed in Escherichia coli assessed as cleavage of Ubiquitin-Rhodamine110-glycine to Ubiquitin and Rhodamine110-glycine using Ubiquitin-Rhodamine110-glycine as substrate by fluorescence based analysis"}, "[5]": {"molecular_target": "Ubiquitin carboxyl-terminal hydrolase 4 (Homo sapiens, UniProt Q13107)", "experiment": "Inhibition of human 6His-tagged USP4 expressed in Escherichia coli assessed as cleavage of Ubiquitin-Rhodamine110-glycine to Ubiquitin and Rhodamine110-glycine using Ubiquitin-Rhodamine110-glycine as substrate by fluorescence based analysis"}, "[6]": {"molecular_target": "Ubiquitin carboxyl-terminal hydrolase 6 (Homo sapiens, UniProt P35125)", "experiment": "Inhibition of human GST-tagged USP6 CD (529 to 1406 residues) expressed in Sf21 insect cells assessed as cleavage of Ubiquitin-Rhodamine110-glycine to Ubiquitin and Rhodamine110-glycine using Ubiquitin-Rhodamine110-glycine as substrate by fluorescence based analysis"}, "[7]": {"molecular_target": "Ubiquitin carboxyl-terminal hydrolase 11 (Homo sapiens, UniProt P51784)", "sequence (P51784 whole entry)": "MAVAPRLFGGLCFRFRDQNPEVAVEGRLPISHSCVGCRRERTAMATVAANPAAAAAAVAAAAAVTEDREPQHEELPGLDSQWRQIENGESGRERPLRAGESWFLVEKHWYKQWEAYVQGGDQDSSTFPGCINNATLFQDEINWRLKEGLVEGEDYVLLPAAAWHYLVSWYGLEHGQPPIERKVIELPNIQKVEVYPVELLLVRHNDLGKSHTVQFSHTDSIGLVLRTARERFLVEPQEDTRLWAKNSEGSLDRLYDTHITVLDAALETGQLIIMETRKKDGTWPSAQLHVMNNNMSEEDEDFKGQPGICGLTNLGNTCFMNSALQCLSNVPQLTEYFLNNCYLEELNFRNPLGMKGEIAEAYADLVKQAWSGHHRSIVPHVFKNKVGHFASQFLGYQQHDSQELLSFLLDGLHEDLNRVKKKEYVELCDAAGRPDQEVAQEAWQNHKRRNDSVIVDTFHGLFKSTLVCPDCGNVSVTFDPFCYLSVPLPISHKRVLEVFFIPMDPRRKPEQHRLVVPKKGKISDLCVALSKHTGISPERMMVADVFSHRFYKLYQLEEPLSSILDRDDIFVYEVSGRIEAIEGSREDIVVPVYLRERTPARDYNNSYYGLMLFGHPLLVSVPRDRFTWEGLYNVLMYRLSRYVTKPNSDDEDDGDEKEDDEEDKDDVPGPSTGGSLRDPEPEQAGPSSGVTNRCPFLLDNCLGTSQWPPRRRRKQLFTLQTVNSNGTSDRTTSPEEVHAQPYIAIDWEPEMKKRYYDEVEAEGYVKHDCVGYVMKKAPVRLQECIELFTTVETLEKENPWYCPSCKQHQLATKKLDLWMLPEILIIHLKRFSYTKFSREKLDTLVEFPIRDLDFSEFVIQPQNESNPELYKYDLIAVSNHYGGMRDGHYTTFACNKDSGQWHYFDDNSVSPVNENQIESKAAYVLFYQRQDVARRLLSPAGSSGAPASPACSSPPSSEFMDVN", "experiment": "Inhibition of USP11 (unknown origin)"}, "[8]": {"molecular_target": "Ubiquitin carboxyl-terminal hydrolase 16 (Homo sapiens, UniProt Q9Y5T5)", "experiment": "Inhibition of USP16 (unknown origin)"}, "[9]": {"molecular_target": "Ubiquitin carboxyl-terminal hydrolase 19 (Homo sapiens, UniProt O94966)", "experiment": "Inhibition of human GST-tagged USP19 (1 to 1290 residues) expressed in Escherichia coli assessed as cleavage of Ubiquitin-Rhodamine110-glycine to Ubiquitin and Rhodamine110-glycine using Ubiquitin-Rhodamine110-glycine as substrate by fluorescence based analysis"}, "[10]": {"molecular_target": "Ubiquitin carboxyl-terminal hydrolase 25 (Homo sapiens, UniProt Q9UHP3)", "sequence (Q9UHP3 whole entry)": "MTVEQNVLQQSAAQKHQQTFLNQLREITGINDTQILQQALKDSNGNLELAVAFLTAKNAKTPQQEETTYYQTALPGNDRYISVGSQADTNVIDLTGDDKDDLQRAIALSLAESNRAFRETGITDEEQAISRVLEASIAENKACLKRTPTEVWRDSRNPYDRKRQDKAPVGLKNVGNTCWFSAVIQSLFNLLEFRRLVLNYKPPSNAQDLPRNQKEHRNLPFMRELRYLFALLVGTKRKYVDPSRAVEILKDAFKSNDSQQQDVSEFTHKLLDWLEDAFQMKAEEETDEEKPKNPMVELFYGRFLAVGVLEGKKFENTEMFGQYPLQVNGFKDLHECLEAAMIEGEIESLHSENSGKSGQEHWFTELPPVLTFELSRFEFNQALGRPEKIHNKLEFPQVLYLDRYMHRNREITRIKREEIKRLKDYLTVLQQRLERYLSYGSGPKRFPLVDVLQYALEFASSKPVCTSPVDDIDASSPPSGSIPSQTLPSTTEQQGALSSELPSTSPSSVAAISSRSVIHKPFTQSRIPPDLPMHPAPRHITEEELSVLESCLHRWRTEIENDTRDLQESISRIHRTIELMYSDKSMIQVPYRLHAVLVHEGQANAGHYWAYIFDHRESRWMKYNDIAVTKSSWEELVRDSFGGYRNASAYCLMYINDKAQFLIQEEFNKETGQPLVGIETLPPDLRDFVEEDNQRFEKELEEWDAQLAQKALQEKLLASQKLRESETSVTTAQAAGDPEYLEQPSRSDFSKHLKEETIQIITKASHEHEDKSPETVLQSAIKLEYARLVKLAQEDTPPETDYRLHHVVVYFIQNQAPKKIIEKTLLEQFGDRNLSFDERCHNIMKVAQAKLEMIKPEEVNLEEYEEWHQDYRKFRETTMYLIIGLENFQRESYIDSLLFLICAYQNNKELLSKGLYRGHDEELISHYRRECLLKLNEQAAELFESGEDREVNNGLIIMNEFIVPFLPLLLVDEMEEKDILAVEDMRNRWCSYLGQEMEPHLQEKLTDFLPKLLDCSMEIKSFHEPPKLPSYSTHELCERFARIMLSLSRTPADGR", "experiment": "Inhibition of human GST-tagged USP25 expressed in Escherichia coli assessed as cleavage of Ubiquitin-Rhodamine110-glycine to Ubiquitin and Rhodamine110-glycine using Ubiquitin-Rhodamine110-glycine as substrate by fluorescence based analysis"}, "[11]": {"molecular_target": "Ubiquitin carboxyl-terminal hydrolase 28 (Homo sapiens, UniProt Q96RU2)", "experiment": "Inhibition of human GST-tagged USP28 expressed in Escherichia coli assessed as cleavage of Ubiquitin-Rhodamine110-glycine to Ubiquitin and Rhodamine110-glycine using Ubiquitin-Rhodamine110-glycine as substrate by fluorescence based analysis"}, "[12]": {"molecular_target": "Ubiquitin carboxyl-terminal hydrolase 30 (Homo sapiens, UniProt Q70CQ3)", "experiment": "Inhibition of human USP30 CD (57 to 517 residues) expressed in Escherichia coli assessed as cleavage of Ubiquitin-Rhodamine110-glycine to Ubiquitin and Rhodamine110-glycine using Ubiquitin-Rhodamine110-glycine as substrate by fluorescence based analysis"}, "[13]": {"molecular_target": "Ubiquitin carboxyl-terminal hydrolase 35 (Homo sapiens, UniProt Q9P2H5)", "experiment": "Inhibition of USP35 (unknown origin)"}, "[14]": {"molecular_target": "Ubiquitin carboxyl-terminal hydrolase 36 (Homo sapiens, UniProt Q9P275)", "sequence (Q9P275 whole entry, the tested form may be a part)": "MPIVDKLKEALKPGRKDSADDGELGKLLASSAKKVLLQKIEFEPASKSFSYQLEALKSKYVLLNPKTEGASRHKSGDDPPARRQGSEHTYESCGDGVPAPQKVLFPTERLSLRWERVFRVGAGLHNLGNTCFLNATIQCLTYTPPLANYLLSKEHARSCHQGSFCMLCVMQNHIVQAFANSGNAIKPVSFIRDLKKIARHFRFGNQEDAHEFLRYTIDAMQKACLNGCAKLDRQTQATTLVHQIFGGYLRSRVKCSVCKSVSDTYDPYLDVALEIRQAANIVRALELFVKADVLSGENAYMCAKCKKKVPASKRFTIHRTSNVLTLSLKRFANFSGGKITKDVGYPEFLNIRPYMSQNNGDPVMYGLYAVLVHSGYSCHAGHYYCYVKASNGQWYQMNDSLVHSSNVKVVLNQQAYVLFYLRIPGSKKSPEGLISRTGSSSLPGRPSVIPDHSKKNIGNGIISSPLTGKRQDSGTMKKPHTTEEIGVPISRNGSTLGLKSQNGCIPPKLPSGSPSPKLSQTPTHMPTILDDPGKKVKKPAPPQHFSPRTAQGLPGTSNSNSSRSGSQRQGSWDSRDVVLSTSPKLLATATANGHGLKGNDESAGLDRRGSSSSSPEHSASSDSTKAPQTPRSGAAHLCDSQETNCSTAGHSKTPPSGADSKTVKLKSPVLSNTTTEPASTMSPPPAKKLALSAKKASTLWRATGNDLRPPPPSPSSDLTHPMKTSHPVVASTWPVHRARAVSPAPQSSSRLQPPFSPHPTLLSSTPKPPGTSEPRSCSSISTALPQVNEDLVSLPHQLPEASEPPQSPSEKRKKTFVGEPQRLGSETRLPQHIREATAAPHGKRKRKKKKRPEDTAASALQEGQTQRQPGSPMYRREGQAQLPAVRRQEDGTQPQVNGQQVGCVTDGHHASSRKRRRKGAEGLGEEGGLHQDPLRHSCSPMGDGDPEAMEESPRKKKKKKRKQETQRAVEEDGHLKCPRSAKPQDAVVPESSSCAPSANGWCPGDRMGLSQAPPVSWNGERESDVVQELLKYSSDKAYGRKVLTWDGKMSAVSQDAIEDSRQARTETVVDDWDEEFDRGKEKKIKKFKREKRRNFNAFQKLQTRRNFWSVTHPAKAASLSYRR", "experiment": "Inhibition of human GST-tagged USP36 CD (81 to 461 residues) expressed in Escherichia coli assessed as cleavage of Ubiquitin-Rhodamine110-glycine to Ubiquitin and Rhodamine110-glycine using Ubiquitin-Rhodamine110-glycine as substrate by fluorescence based analysis"}, "[15]": {"molecular_target": "Ubiquitin carboxyl-terminal hydrolase 45 (Homo sapiens, UniProt Q70EL2)", "experiment": "Inhibition of USP45 (unknown origin)"}, "Deubiquitinase OTUD6B": {"molecular_target": "Deubiquitinase OTUD6B (Homo sapiens, UniProt Q8N6M0)", "sequence (Q8N6M0 whole entry)": "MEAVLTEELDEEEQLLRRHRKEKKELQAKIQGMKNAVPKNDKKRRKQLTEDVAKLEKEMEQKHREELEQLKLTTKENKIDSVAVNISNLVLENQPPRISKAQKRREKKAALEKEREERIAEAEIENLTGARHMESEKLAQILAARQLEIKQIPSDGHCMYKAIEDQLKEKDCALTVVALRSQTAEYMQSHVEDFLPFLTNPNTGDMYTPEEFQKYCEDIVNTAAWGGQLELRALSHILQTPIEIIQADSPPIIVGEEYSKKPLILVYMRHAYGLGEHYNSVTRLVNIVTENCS", "experiment": "Inhibition of human GST-tagged OTUD6B expressed in Escherichia coli assessed as cleavage of Ubiquitin-Rhodamine110-glycine to Ubiquitin and Rhodamine110-glycine using Ubiquitin-Rhodamine110-glycine as substrate by fluorescence based analysis"}, "[16]": {"molecular_target": "Deubiquitinating protein VCPIP1 (Homo sapiens, UniProt Q96JH7)", "experiment": "Inhibition of human GST-tagged VCPIP CD (25 to 561 residues) expressed in Escherichia coli assessed as cleavage of Ubiquitin-Rhodamine110-glycine to Ubiquitin and Rhodamine110-glycine using Ubiquitin-Rhodamine110-glycine as substrate by fluorescence based analysis"}, "Ataxin-3-like protein": {"molecular_target": "Ataxin-3-like protein (Homo sapiens, UniProt Q9H3M9)", "experiment": "Inhibition of human 6His-tagged Ataxin-3L expressed in Escherichia coli assessed as cleavage of Ubiquitin-Rhodamine110-glycine to Ubiquitin and Rhodamine110-glycine using Ubiquitin-Rhodamine110-glycine as substrate by fluorescence based analysis"}, "Josephin-2": {"molecular_target": "Josephin-2 (Homo sapiens, UniProt Q8TAC2)", "sequence (Q8TAC2 whole entry)": "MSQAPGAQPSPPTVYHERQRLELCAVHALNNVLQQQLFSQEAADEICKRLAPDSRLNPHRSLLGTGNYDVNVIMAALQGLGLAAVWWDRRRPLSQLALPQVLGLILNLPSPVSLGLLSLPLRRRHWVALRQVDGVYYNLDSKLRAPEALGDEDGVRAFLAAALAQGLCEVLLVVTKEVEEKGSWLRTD", "experiment": "Inhibition of human 6His-tagged JOSD2 expressed in Escherichia coli assessed as cleavage of Ubiquitin-Rhodamine110-glycine to Ubiquitin and Rhodamine110-glycine using Ubiquitin-Rhodamine110-glycine as substrate by fluorescence based analysis"}, "[17]": {"molecular_target": "Ubiquitin carboxyl-terminal hydrolase 5 (Homo sapiens, UniProt P45974)", "experiment": "Inhibition of human 6His-tagged USP5 expressed in Escherichia coli assessed as cleavage of Ubiquitin-Rhodamine110-glycine to Ubiquitin and Rhodamine110-glycine using Ubiquitin-Rhodamine110-glycine as substrate by fluorescence based analysis"}, "Homo sapiens": {"organism": "Homo sapiens", "experiment": "Selectivity index, ratio of IC50 for human GST-tagged VCPIP CD (25 to 561 residues) expressed in Escherichia coli assessed as cleavage of Ubiquitin-Rhodamine110-glycine to Ubiquitin and Rhodamine110-glycine using Ubiquitin-Rhodamine110-glycine as substrate by fluorescence based analysis to IC50 for inhibition of recombinant full length USP7 (unknown origin) using ubiquintin-rhodamine as substrate preincubated for 30 mins followed by substrate addition measured after 1 hr by fluorescence-based Envision plate reader assay"}}, "data": [{"smiles": "Cc1cc(Cl)cc(-c2ccnc3cc(CN4C(=O)C5C(C4=O)C5(C)C)sc23)c1O[C@@H]1CCNC[C@@H]1C", "note": "(some centres not stated)", "values": [{"measurement": "IC50", "setting": "[1]", "result": 0.00018, "unit": "µM"}, {"measurement": "CC50 at 120 h", "setting": "[2]", "result": 3.4, "unit": "µM"}, {"measurement": "IC50", "setting": "[3]", "result": 0.4, "unit": "µM"}, {"measurement": "INH", "setting": "Cytochrome P450 3A4", "result": 6.2, "unit": "µM"}, {"measurement": "IC50", "setting": "[4]", "result": "> 10", "unit": "µM"}, {"measurement": "IC50", "setting": "[5]", "result": "> 10", "unit": "µM"}, {"measurement": "IC50", "setting": "[6]", "result": "> 10", "unit": "µM"}, {"measurement": "IC50", "setting": "[7]", "result": "> 10", "unit": "µM"}, {"measurement": "IC50", "setting": "[8]", "result": "> 10", "unit": "µM"}, {"measurement": "IC50", "setting": "[9]", "result": "> 10", "unit": "µM"}, {"measurement": "IC50", "setting": "[10]", "result": "> 10", "unit": "µM"}, {"measurement": "IC50", "setting": "[11]", "result": "> 10", "unit": "µM"}, {"measurement": "IC50", "setting": "[12]", "result": "> 10", "unit": "µM"}, {"measurement": "IC50", "setting": "[13]", "result": "> 10", "unit": "µM"}, {"measurement": "IC50", "setting": "[14]", "result": "> 10", "unit": "µM"}, {"measurement": "IC50", "setting": "[15]", "result": "> 10", "unit": "µM"}, {"measurement": "IC50", "setting": "Deubiquitinase OTUD6B", "result": "> 10", "unit": "µM"}, {"measurement": "IC50", "setting": "[16]", "result": "> 10", "unit": "µM"}, {"measurement": "IC50", "setting": "Ataxin-3-like protein", "result": "> 10", "unit": "µM"}, {"measurement": "IC50", "setting": "Josephin-2", "result": "> 10", "unit": "µM"}, {"measurement": "IC50", "setting": "[17]", "result": "> 10", "unit": "µM"}, {"measurement": "Ratio IC50", "setting": "Homo sapiens", "result": "> 50000"}]}]}
